Read-outs that look alike come from different tables or passages of the source.
Columns and labels:
[1] = target: T1, calf thymus thioredoxin reductase (Bos taurus, UniProt O62768); assay: Reduction of DTNB by thioredoxin reductase; assay type: biochemical
T1 construct: Thioredoxin reductase (TrxR) from calf thymus or human placenta were purified to homogeneity; from tissue; host or cells: calf thymus
T1 sequence (O62768 1-499): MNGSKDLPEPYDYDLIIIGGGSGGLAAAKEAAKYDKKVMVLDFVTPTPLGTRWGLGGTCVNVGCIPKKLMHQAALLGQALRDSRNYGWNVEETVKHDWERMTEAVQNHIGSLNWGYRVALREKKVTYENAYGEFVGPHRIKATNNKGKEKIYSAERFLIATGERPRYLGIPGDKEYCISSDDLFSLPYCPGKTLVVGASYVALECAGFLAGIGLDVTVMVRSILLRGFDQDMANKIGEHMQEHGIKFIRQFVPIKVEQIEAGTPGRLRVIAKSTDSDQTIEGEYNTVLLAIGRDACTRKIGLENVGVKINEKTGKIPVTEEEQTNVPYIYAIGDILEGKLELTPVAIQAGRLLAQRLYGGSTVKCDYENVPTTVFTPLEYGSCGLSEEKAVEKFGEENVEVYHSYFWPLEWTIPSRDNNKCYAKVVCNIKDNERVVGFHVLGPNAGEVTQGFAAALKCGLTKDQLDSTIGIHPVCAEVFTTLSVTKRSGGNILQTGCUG
Description: (§1) The activity of thioredoxin reductase was determined in the insulin assay. A mixture of 100 mM potassium phosphate (pH 7.0), 2 mM NADPH, and 0.16 mM insulin was added with Compound A and thioredoxin, and then with thioredoxin reductase in a total volume of 0.55 ml for the reaction. The progress of reduction of insulin disulfides was followed at 340 nm. Generated sulfhydryl or selenol groups were measured at 412 nm by addition of 0.50 ml of a mixture of 6 M guanidine-HCl, 0.20 M Tris-Cl (pH 8.0), 1 mM DTNB and calculated using a molar extinction coefficient of 13,600 M^−1cm^−1. DTNB reducing activity of thioredoxin reductase by using NADPH was measured at 412 nm in 100 mM potassium phosphate (pH 7.0) containing 10 mM EDTA, 0.2 mM NADPH, 5 mM DTNB and 0.1 mg per ml of bovine serum albumin.
(§2) To test whether or not Compound A inhibited thioredoxin reductase, enzyme assays were performed.
(§3) Then 0.5 ml of a mixture containing 6 M guranidine HCl, 0.20 M Tris-HCl (pH 8.0) and 1 mM DTNB was added to stop the reaction and the absorbance at 412 nm was used to calculate the amount of SH-groups generated in insulin. In (B), 10 nM calf thymus thioredoxin reductase was preincubated with or without 50 μM compound A and 100 μM NADPH for 1 h. Then 10 μl of the resulting solution was added to 500 μl of a mixture of 0.1 M Tris-HCl (pH 8.0), 1 mM EDTA and 5 mM DTNB to determine activity at 412 nm. Activity is expressed as the amount of SH-groups generated (μM) after 3 min.

[2] = target: E.coli Trx-(SH)2 (Escherichia coli, UniProt P0AA25); assay: Oxidation of E.coli Trx-(SH)2 by compound A determined by fluorescence spectroscopy; assay type: biochemical; details: 0.1 μM Trx-(SH)2 mixed with 0.1 μM compound A, pH 7.5, 22° C.
E.coli Trx-(SH)2, sequence (P0AA25 whole entry): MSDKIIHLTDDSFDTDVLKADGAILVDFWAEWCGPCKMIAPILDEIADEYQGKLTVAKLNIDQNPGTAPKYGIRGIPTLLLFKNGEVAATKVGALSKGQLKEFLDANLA
Description: Protein fluorescence was measured with a thermostated SPEX-Fluoro Max instrument. Trx-(SH)2 was prepared from E.coli Trx-S2 640 μM which was incubated at room temperature for 20 min with 10 mM DTT. DTT was subsequently removed by gel chromatography (on a NAP-5 column (Pharmacia) using N2 equilibrated buffer). Trx-(SH)2 was mixed with Compound A dissolved in a total volume of 3 ml of a mixture (pH 7.5) of 0.1 M potassium phosphate and 1 mM EDTA, and fluorescence was immediately measured in the spectrofluorimeter at 22° C. Excitation of fluorescence was at 290 nm and emission spectra from 300 to 500 nm were recorded. Fluorescence at 340 nm was used to follow the oxidation of Trx-(SH)2 to record the rate of the reaction.
Mammalian and E.coli Trx have the same active site GPC and reactivity with disulfides. […] N2 equilibrated 0.1 M potassium phosphate was added with 0.1 μM (1.2 μg/ml) of E.coli Trx-(SH)2 and then with 1 mM EDTA (pH 7.5) to prepare a sample. Fluorescence of the sample was excited at 290 nm. The […] at the wavelength range from 300 to 500 nm was recorded. Then 0.1 μM of compound A was added and a spectrum was recorded. […] This is the fastest reaction for oxidation of reduced thioedoxin by a low molecular weight compound.

[3] = target: T2, human thioredoxin reductase (Homo sapiens, UniProt Q16881); assay: Reduction of Compound A by human thioredoxin reductase (NADPH oxidation at 340 nm, selenol detection with DTNB); assay type: biochemical
T2 construct: Thioredoxin reductase (TrxR) from human placenta were purified to homogeneity; from tissue; host or cells: human placenta
T2 sequence (Q16881 1-499 isoform Q16881-5): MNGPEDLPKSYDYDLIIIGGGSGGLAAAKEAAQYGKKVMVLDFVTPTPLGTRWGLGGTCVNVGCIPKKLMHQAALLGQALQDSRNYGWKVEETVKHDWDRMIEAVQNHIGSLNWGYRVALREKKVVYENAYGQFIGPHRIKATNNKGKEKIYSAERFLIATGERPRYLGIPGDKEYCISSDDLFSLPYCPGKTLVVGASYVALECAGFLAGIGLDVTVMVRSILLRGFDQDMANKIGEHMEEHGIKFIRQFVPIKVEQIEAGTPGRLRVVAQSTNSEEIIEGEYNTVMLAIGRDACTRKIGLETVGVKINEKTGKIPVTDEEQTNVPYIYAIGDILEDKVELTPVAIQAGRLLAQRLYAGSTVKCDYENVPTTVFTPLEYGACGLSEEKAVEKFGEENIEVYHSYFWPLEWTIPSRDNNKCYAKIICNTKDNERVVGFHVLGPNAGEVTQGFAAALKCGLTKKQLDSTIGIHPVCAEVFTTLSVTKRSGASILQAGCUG
Description: (§4) Measurements of thioredoxin reductase activity were performed in TF buffer (50 mM Tris-Cl, 1 mM EDTA, pH 7.5) with 100 μM NADPH and a given amount of Compound A. Reactions were carried out with addition of 5 or 10 μl of stock solution of thioredoxin reductase in a final volume of 0.55 ml. Cuvettes used as reference contained the same amount of DMSO as in the samples and also thioredoxin reductase. Absorbance of the control cuvette was automatically subtracted by the spectrophotometer. The reactions were followed at 340 nm.
Compound A absorbs at 340 nm with a 4,000 M^−1cm^−1 molar extinction coefficient, and N-phenyl-2-carboxamidobenzene selenol, the reduction product of selenol by a dithiol, has half the absorption (2000 M^−1cm^−1) at 340 nm. The formation of the compound A-selenol was confirmed by measuring absorption spectra in the presence or absence of excess DTT. In calculations of the formation of compound A-selenol, a molar extinction coefficient of 8,200 M^−1cm^−1 was used since oxidation of NADPH to NADP^+ yields 6,200 M^−1cm^−1.
Compound A 50 μM (●) or 100 μM (□) was dissolved in 0.55 ml of a solution containing 50 mM Tris-Cl, 1 mM EDTA (pH 7.5) and 100 μM NADPH, and mixed with 40 nM human thioredoxin reductase. Absorbance at 340 nm was measured and corrected against the blank value (with the same amounts of enzyme, but without compound A). The same experiments using 50 μm (●) and 100 μM (Δ) Compound A mixed with 17 nM enzyme were performed.
The reaction was fast since with 50 μM Compound A the reaction was complete after 1 min. […] When 6 M guanidine hydrochloride containing DTNB was added to the cuvette at 7 min, an absorbance at 412 nm of 0.400 was measured indicating formation of selenol groups. Compound A itself gave no reaction with DTNB. The reaction with 100 μM compound A was seemingly slower from the decrease in absorbance at 340 nm using 40 nM enzyme.

[4] = target: T2, human thioredoxin reductase; assay: Reduction of hydrogen peroxide by human thioredoxin reductase (hydrogen peroxide reductase activity); assay type: biochemical; details: hydrogen peroxide 2 mM, TrxR 17 nM, human Trx 5 μM
[5] = target: T2, human thioredoxin reductase; assay: as above; assay type: biochemical; details: for effect on reaction rate of hydrogen peroxide reduction: 4.5 μM Trx; for turnover of enzyme (hydrogen peroxide reduction) / fold increase of hydrogen peroxide reductase activity: 0.5 mM hydrogen peroxide, 17 nM human TrxR; for fold increase of hydrogen peroxide reductase activity: versus enzyme alone
Description: as §4
[…] The absorbance at 340 nm was determined against a blank with 17 nM thioredoxin reductase but without hydrogen peroxide. As a result, with 0.50 mM hydroperoxide a turnover number of 30×min^−1 was calculated. Addition of 2 μM compound A stimulated the activity with the enzyme which increased its activity to a turnover of 450×min^−1 or 15-fold. […] Thus, Compound A acts to dramatically increase the hydrogen peroxide reductase activity of thioredoxin reductase and also acts as a thioredoxin peroxidase mimic.
Addition of 4.5 μM thioredoxin to 17 nM thioredoxin reductase stimulated the reduction of hydrogen peroxide. […] The same conditions as in FIG. 5 were applied with only 17 nM thioredoxin reductase (●) and addition of 4.5 μM Trx (Δ). Then […] was added to adjust the final compound A concentration to […].
Thus compound A increased activity of the enzyme with lower more physiologically relevant concentrations, and this increase was about 25-fold. […] Activity is expressed as the variation ratio per min, ΔA340/min. […]

[6] = target: T1, calf thymus thioredoxin reductase; assay: Trx-catalyzed insulin disulfide reduction assay; assay type: biochemical; details: for SH-group: 5 μM human Trx, 10 nM calf thymus thioredoxin reductase, 3 min, 20° C.; for Activity: relative to 0 μM = 100
Description: as §1, §2, §3

[7] = target: T2, human thioredoxin reductase; details: human Trx-S2, comparison value, cited from earlier work
[8] = 2 μM compound A plus 4.5 μM human Trx

O=c1c2ccccc2[se]n1-c1ccccc1 [Compound A, 2-phenyl-1,2-benzisoselenazol-3(2H)-one]
inhibition of thioredoxin reductase with DTNB as substrate ([1]; 50 μM Compound A and 10 nM enzyme): No inhibition | SH-group ([1]; 50 μM Compound A preincubated with 10 nM enzyme and 100 μM NADPH for 1 h, after 3 min): 7.5 µM | Activity ([1]; 50 μM Compound A, preincubation 1 h, relative to 0 μM = 100): 103% | inhibition of the enzyme after preincubation with compound A ([1]; preincubation in the presence or absence of NADPH): did not inhibit | oxidation rate of Trx-(SH)2 [2]: > 2e+07 M⁻¹ s⁻¹ | Kcal ([3]; 15 nM enzyme, 5, 10 and 20 μM compound A): 1000 ± 300 min⁻¹ | Km ([3]; 15 nM enzyme, 5, 10 and 20 μM compound A, read-out: Km-value as substrate for thioredoxin reductase): < 5 µM | time until reaction complete ([3]; 50 μM Compound A, 40 nM human thioredoxin reductase, 100 μM NADPH): 1 min | absorbance at 412 nm after DTNB addition (formation of selenol groups) ([3]; 6 M guanidine hydrochloride containing DTNB added at 7 min, 50 μM Compound A, 40 nM enzyme): 0.400 | turnover of Compound A [4]: 23 min⁻¹ | enzyme turnover ([4]; compound A): 1328 min⁻¹ | NADPH oxidation rate ([4]; same rate with 1, 2 and 5 μM compound A): 23 µM/min | effect on reaction rate of hydrogen peroxide reduction ([5]; 0.5 μM compound A, 17 nM thioredoxin reductase): increased the reaction rate | effect on reaction rate of hydrogen peroxide reduction ([5]; 5.5 μM compound A, 17 nM thioredoxin reductase): stimulated strongly | fold increase of enzyme activity at low hydrogen peroxide concentration ([5]; 100 μM hydrogen peroxide, 17 nM thioredoxin reductase, 2 μM Compound A): about 25 fold | turnover of enzyme (hydrogen peroxide reduction) ([5]; 2 μM compound A): 450 min⁻¹ | turnover of enzyme (hydrogen peroxide reduction) [5, 8]: 900 min⁻¹ | fold increase of hydrogen peroxide reductase activity [5, 8]: 30 fold | fold increase of hydrogen peroxide reductase activity ([5]; 2 μM compound A): 15 fold | effect in insulin disulfide reduction assay using thioredoxin and thioredoxin reductase [6]: only a small effect | SH-group ([6]; 5 μM Compound A): 70.6 µM | Activity ([6]; 5 μM Compound A): 89% | SH-group ([6]; 10 μM Compound A): 68.4 µM | Activity ([6]; 10 μM Compound A): 88%

B1: human Trx-S2: oxidized human thioredoxin, protein substrate of thioredoxin reductase, used for comparison of Km and Kcal (protein, UniProt P10599 2-105, looked up)
Thioredoxin: VKQIESKTAFQEALDAAGDKLVVVDFSATWCGPCKMIKPFFHSLSEKYSNVIFLEVDVDDCQDVASECEVKCMPTFQFFKKGQKVGEFSGANKEKLEATINELV
modifications: oxidized
notes: oxidized human thioredoxin, protein substrate of thioredoxin reductase, used for comparison of Km and Kcal
Kcal [7]: 3000 min⁻¹ | Km ([7]; read-out: Km-value as substrate for thioredoxin reductase): 2.5 µM

Source: patent publication US7671211B1, “Substrates for thioredoxin reductase” (priority 1999, dated 2010)
